Source: patent publication US20220227773A1, “FUSED RING COMPOUND, PREPARATION METHOD THEREFOR AND USE THEREOF” (SHANGHAI INSTITUTE OF MATERIA MEDICA, CHINESE ACADEMY OF …, priority 2019, published 2022)
Counter-ions that a name gives are not always drawn. Like-named read-outs stand apart in the source and are kept apart here.

Experiments:
[1] = target: T1, human recombinant 5-HT3 receptor (Homo sapiens, UniProt P46098); assay: 5-HT3 receptor affinity assay (3H-BRL 43694 radioligand binding); settings: read-out: inhibition (%) at 1 μM
T1 construct: expressed in transfected cells; host or cells: HEK293 (membrane preparation)
T1 sequence (P46098 24-478): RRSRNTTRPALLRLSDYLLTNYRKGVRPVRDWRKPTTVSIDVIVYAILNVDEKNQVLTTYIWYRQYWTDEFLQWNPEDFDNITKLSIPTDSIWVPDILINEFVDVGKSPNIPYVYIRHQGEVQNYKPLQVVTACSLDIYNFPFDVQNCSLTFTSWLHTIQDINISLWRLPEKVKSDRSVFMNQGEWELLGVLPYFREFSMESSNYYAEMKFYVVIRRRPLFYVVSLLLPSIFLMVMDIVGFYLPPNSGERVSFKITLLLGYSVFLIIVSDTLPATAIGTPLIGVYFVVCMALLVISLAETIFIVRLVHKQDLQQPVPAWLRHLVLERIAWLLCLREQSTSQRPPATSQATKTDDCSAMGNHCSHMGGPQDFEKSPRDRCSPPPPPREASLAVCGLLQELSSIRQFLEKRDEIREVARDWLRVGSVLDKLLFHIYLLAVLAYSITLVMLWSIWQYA

[2] = target: T2, hSERT (5-HTT) in HEK293-hSERT cells (Homo sapiens, UniProt P31645); assay: 5-HTT reuptake activity assay (fluorescence neurotransmitter transporter uptake kit); type: cell-based; settings: serotonin reuptake inhibition
T2 construct: expressed in transfected cells; host or cells: HEK293
T2 sequence (P31645 whole entry): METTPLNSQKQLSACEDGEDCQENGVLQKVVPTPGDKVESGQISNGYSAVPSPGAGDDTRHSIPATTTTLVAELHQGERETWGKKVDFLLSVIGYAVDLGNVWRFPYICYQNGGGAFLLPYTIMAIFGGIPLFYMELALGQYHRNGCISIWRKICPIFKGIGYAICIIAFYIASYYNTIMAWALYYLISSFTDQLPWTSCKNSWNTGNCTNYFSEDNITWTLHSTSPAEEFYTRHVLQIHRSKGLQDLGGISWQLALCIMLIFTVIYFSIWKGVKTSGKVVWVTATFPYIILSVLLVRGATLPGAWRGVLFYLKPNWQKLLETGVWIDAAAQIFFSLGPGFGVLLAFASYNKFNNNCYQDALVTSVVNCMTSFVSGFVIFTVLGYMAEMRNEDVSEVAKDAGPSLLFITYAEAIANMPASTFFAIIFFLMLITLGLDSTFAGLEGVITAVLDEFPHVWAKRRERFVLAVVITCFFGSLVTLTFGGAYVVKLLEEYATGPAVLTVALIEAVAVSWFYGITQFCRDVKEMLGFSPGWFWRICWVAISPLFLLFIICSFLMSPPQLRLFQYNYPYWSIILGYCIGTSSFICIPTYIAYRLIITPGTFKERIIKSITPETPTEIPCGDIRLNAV

[3] = tested on: mice; assay: Tail suspension test (TST) in mice; type: in vivo; settings: Mus musculus, ip
Procedure: (§1) 3. In Vivo Drug Efficacy Test (Mouse Forced Swimming Model)
(§2) Experimental animals: C57BL/6 mice (Shanghai Xipuer-Bikai Experimental Animal Co., Ltd.), male, 6 weeks old, weighing 15-20 g. ICR mice (Shanghai Xipuer-Bikai Experimental Animal Co., Ltd.), male, 6 weeks old, weighing 20-25 g. All the ordered mice were fed in a standard environment for 2-3 weeks before test.
Tail suspension test (TST): the mice were tail fixed to the apparatus with a medical tape for 6 min, the whole process was recorded by the camera. When analyzing the data, only the immobility time of the mice in the last 4 min was counted.
(§3) The results were analyzed by one-way analysis of variance. […] FST: Forced swimming test; TST: Tail suspension test.

[4] = tested on: mice; assay: Forced swimming test (FST) in mice; type: in vivo; settings: Mus musculus
Procedure: as §1, §2
Forced Swimming Test (FST): in the forced swimming apparatus, the water level is 45 cm, and the water temperature is 25° C. Before the experiment, the mice were placed in the experimental room for 1 h for adapting to the environment. At the beginning of the experiment, the mice were placed in the apparatus for 6min, and the whole process was recorded with a camera. When analyzing the data, only the immobility time of the mice in the last 4 min was counted, and the result was expressed by mean±SD.
as §3

[5] = TST, dose significantly reducing immobility time of mice, read-out: Effective dose
[6] = read-out: Effective dose (mg/kg)
[7] = ip, read-out: Effective dose (mg/kg)
[8] = 1 μM compound, 0.5 nM 3H-BRL 43694, HEK293 membranes
[9] = po, read-out: Effective dose (mg/kg)

Row | Structure (SMILES) | inhibition at 1 µM [1] | IC50 [2] | minimal effective dose [3, 5] | minimal effective dose [3, 6] | minimal effective dose [4, 7] | inhibition at 1 µM [1, 8] | minimal effective dose ([4]; po, FST, dose significantly reducing immobility time of mice, read-out: Effective dose) | minimal effective dose [4, 9]
1 | O=C(O)/C=C\C(=O)O.c1cc(N2CCC3CNCC3CC2)c2ccsc2c1 (centres unmarked) [Example 38, 6-(Benzo[b]thiophen-4-yl)decahydropyrrolo[3,4-d]azepine maleate] | 103% | < 10 nM | 10 mg/kg | – | – | – | – | –
2 | CN1CC2CN(c3cccc(Cl)c3Cl)CC2C1.O=C(O)C(=O)O (centres unmarked) [Example 28, 2-(2,3-dichlorophenyl)-5-methyloctahydropyrrolo[3,4-c]pyrrole oxalate] | 82% | < 200 nM | – | 10 mg/kg | – | – | – | –
3 | Clc1cccc(N2CCC3CNCC3CC2)c1Cl.O=C(O)/C=C\C(=O)O (centres unmarked) [Example 37, 6-(2,3-dichlorophenyl)decahydropyrrolo[3,4-d]azepine maleate] | 80% | < 10 nM | – | – | 10 mg/kg | – | – | –
4 | O=C(O)/C=C\C(=O)O.c1cc(N2CC3CCNCCC3C2)c2ccsc2c1 (centres unmarked) [Example 41, 2-(Benzo[b]thiophen-4-yl)decahydropyrrolo[3,4-d]azepine maleate] | 86% | < 10 nM | 10 mg/kg | – | – | – | – | –
5 | CCN1CC2CN(c3ccc4ccccc4c3)CC2C1.O=C(O)C(=O)O (centres unmarked) [Example 25, 2-ethyl-5-(naphthalen-2-yl)octahydropyrrolo[3,4-c]pyrrole oxalate] | – | – | 10 mg/kg | – | – | – | – | –
6 | Cl.c1ccc2sc(C3CC4CNCC4C3)cc2c1 (centres unmarked) [Example 50, 5-(benzothiophen-2-yl)octahydrocyclopenta[c]pyrrole hydrochloride] | – | < 200 nM | – | – | 10 mg/kg | 83% | – | –
7 | c1cc2cc(N3CCC4CNCC4CC3)ccc2s1 (centres unmarked) [Example 7, 6-(Benzothiophen-5-yl)decahydropyrrolo[3,4-d]azepine maleate] | 101% | < 10 nM | 10 mg/kg | – | – | – | – | –
8 | CN1CC2CN(c3ccc4ccccc4c3F)CC2C1.O=C(O)/C=C\C(=O)O (centres unmarked) [Example 32, 2-(1-fluoronaphthalen-2-yl)-5-methyloctahydropyrrolo[3,4-c]pyrrole maleate] | 103% | < 10 nM | – | – | – | – | 20 mg/kg | –
9 | Clc1ccc(N2CCC3CNCC3CC2)cc1Cl (centres unmarked) [Example 35, 6-(3,4-dichlorophenyl)decahydropyrrolo[3,4-d]azepine] | – | < 10 nM | – | – | – | 98% | – | 20 mg/kg
10 | O=C(O)/C=C\C(=O)O.c1ccc2cc(N3CCC4CNCC4CC3)ccc2c1 (centres unmarked) [Example 39, 6-(naphthalen-2-yl)decahydropyrrolo[3,4-d]azepine maleate] | 92% | < 10 nM | 10 mg/kg | – | – | – | – | –
11 | CN1CC2CN(c3ccc(Cl)c(Cl)c3)CC2C1 (centres unmarked) [Example 17, 2-(3,4-dichlorophenyl)-5-methyloctahydropyrrolo[3,4-c]pyrrole] | – | < 10 nM | – | – | – | 93% | – | 5 mg/kg
12 | Br.CN1CC2CN(c3cccc4sccc34)CC2C1 (centres unmarked) [Example 13, 2-(Benzo[b]thiophen-4-yl)-5-methyloctahydropyrrolo[3,4-c]pyrrole hydrobromide] | 70% | < 50 nM | – | – | 5 mg/kg | – | – | –
13 | Clc1ccc(N2CC3CNCC3C2)cc1Cl (centres unmarked) [Example 16, 2-(3,4-dichlorophenyl)octahydropyrrolo[3,4-c]pyrrole] | – | < 10 nM | – | – | 3 mg/kg | 96% | – | –
14 | Fc1c(N2CC3CNCC3C2)ccc2ccccc12.O=C(O)/C=C\C(=O)O (centres unmarked) [Example 31, 2-(1-fluoronaphthalen-2-yl)octahydropyrrolo[3,4-c]pyrrole maleate] | 101% | < 10 nM | – | – | – | – | – | 20 mg/kg
15 | O=C(O)/C=C\C(=O)O.c1ccc2sc(N3CC4CNCC4C3)cc2c1 (centres unmarked) [Example 22, 2-(Benzo[b]thiophen-2-yl)octahydropyrrolo[3,4-c]pyrrole maleate] | – | < 50 nM | – | 10 mg/kg | – | – | – | –
16 | CN1CC2CN(c3ccc4ccccc4c3)CC2C1 (centres unmarked) [Example 2, 2-methyl-5-(naphthalen-2-yl)octahydropyrrolo[3,4-c]pyrrole] | – | < 10 nM | – | – | – | 97% | – | 5 mg/kg
17 | CN1CC2CN(c3ccc4sccc4c3)CC2C1.Cl (centres unmarked) [Example 15, 2-(Benzo[b]thiophen-5-yl)-5-methyloctahydropyrrolo[3,4-c]pyrrole hydrochloride] | – | < 10 nM | – | – | – | 70% | – | 2.5 mg/kg
18 | O=C(O)/C=C\C(=O)O.c1cc(N2CCC3CNCC3CC2)c2sccc2c1 (centres unmarked) [Example 36, 6-(Benzo[b]thiophen-7-yl)decahydropyrrolo[3,4-d]azepine maleate] | 89% | < 10 nM | 10 mg/kg | – | – | – | – | –
19 | c1ccc2cc(N3CC4CNCC4C3)ccc2c1 (centres unmarked) [Example 1, 2-(naphthalen-2-yl)octahydropyrrolo[3,4-c]pyrrole] | 106% | < 10 nM | – | – | – | – | – | 5 mg/kg
20 | CN1CC2CN(c3cccc4ccsc34)CC2C1.O=C(O)C(=O)O (centres unmarked) [Example 11, 2-(Benzo[b]thiophen-7-yl)-5-methyloctahydropyrrolo[3,4-c]pyrrole oxalate] | – | < 50 nM | – | – | 10 mg/kg | 86% | – | –
21 | Cl.c1ccc2cc(C3CC4CNCC4C3)ccc2c1 (centres unmarked) [Example 55, 5-(naphthalen-2-yl)octahydrocyclopenta[c]pyrrole hydrochloride] | – | < 10 nM | – | – | – | 75% | – | 5 mg/kg
22 | O=C(O)/C=C\C(=O)O.c1cc(N2CC3CNCC3C2)c2sccc2c1 (centres unmarked) [Example 10, 2-(Benzo[b]thiophen-7-yl)octahydropyrrolo[3,4-c]pyrrole maleate] | 86% | < 50 nM | – | – | 10 mg/kg | – | – | –
23 | CN1CC2CN(c3ccc(C(F)(F)F)cc3)CC2C1.O=C(O)C(=O)O (centres unmarked) [Example 81, 2-methyl-5-(4-(trifluoromethyl)phenyl)octahydropyrrolo[3,4-c]pyrrole oxalate] | – | < 50 nM | – | – | 10 mg/kg | – | – | –
24 | O=C(O)/C=C\C(=O)O.c1cc(N2CC3CNCC3C2)c2ccsc2c1 (centres unmarked) [Example 12, 2-(Benzo[b]thiophen-4-yl)octahydropyrrolo[3,4-c]pyrrole maleate] | 101% | < 50 nM | – | – | 3 mg/kg | – | – | –
25 | O=C(O)/C=C\C(=O)O.c1cc2cc(N3CC4CNCC4C3)ccc2s1 (centres unmarked) [Example 14, 2-(Benzo[b]thiophen-5-yl)octahydropyrrolo[3,4-c]pyrrole maleate] | 99% | < 10 nM | – | – | 3 mg/kg | – | – | –
